In patent US20100041089A1, “IMPROVED METHOD FOR DETECTING CHEMICAL […]” (priority 2006, published 2010):

Test system: yeast genes (expressed mRNA)
Experiment: DNA chip measurement of expressed mRNA of yeast genes after culture with a toxic chemical substance
Format: cell-based, Saccharomyces cerevisiae S288C
Description: Yeast (Saccharomyces cerevisiae S288C (a SUC2mal mel gap2 CUP1)) were cultured at 25° C. on YPD medium (yeast extract 1%, polypeptone 2%, glucose 2%). One of toxic chemical substances was added to the cell at logarithmic growth phase, and the cell was further cultured for two hours. Cell was cultured without any chemical substance in the same condition, and was used as a control. Concentrations of the chemical substances were defined to inhibit the growth of the yeast but not lead to death.
After the completion of cultivation, the culture was centrifuged to collect the cells. To the cells, sodium acetate buffer (50 mM sodium acetate, 10 mM EDTA, 1% SDS) was added, and the mixture was shaken at 65° C. for five minutes, followed by returning to room temperature, and obtaining the supernatant, which procedure was repeated two times. To the supernatant, ½ amount of a solution of phenol/chloroform (1:1) was added, and the mixture was centrifuged to give a supernatant, an equal amount of chloroform was added, and the mixture was centrifuged to give a supernatant. To the supernatant, an equal amount of isopropanol containing 0.3 M sodium acetate was added, and the mixture was allowed to stand at room temperature for 30 minutes, after which the mixture was centrifuged to give sediment of the whole RNAs. Seventy % ethanol was added to the sediment, and the mixture was again centrifuged to give sediment, which was then dried and dissolved in water. mRNA was isolated from the whole RNAs as followings. In view of the fact that a poly A chain is attached to the 3′ terminus of mRNA, a polynucleotide having a poly T structure which was immobilized on the surface of latex beads was used to trap the mRNA, and then the mRNA was washed and eluted with spine column (Oligotex-dT30<Super>mRNA Purification Kit, Takara). Reverse transcription of the mRNA was conducted with a reverse transcriptase (Super Script II Reverse Transcriptase; catalogue No. 18064-014, GibcoBRL) using fluorescence-labeled nucleotides to give cDNAs that were introduced with Cy3-dUTP or Cy5-dUTP during the reverse transcription.
The labeled cDNAs were dissolved in TE buffer (10 mM Tris-HCl/1 mM EDTA, pH 8.0), and the solution was dropped on the DNA chip containing the whole genes of yeast (DNA Chip Research Inc. Japan) so that the cDNAs were hybridized on the DNA chip at 65° C. for over 12 hours. The fluoresces intensity of the DNA chip was read with a scanner, and the ratio relative to the fluorescence intensity resulting from the absence of chemical substance was estimated as the following, which is shown in Tables 1 to 9.
In the Tables, “Intensity” indicated in the rightmost column is a value of the level of expressed mRNA of each gene in control cells as divided by the average level of the expressions of the whole genes. A gene of which mRNA level is lower in control, and is higher in cases of addition of chemical substance, is especially useful in the detection of toxic substances.
Here, when a ratio of an amount of mRNA expressed in the presence of the chemical substance to an amount of mRNA expressed in the absence of the chemical substance is two or more, then it is considered significant.

CCCCC[C@H](O)CC(=O)CCc1ccc(O)c(OC)c1 [(13), Gingerol]
The level of expressed mRNA in the presence of chemical substance/The level of expressed mRNA in the absence of chemical substance (yeast gene YFR017C, cultured two hours with substance): 1.7 | level of expressed mRNA in the presence of chemical substance / level in the absence of chemical substance (yeast gene YFR026C, cultured two hours with the chemical substance): 1.1 | The level of expressed mRNA in the presence of chemical substance/The level of expressed mRNA in the absence of chemical substance (yeast gene YFR044C, cultured two hours with substance): 3.1 | The level of expressed mRNA in the presence of chemical substance/The level of expressed mRNA in the absence of chemical substance (yeast gene YGL037C, cultured two hours with substance): 2.3 | level of expressed mRNA in the presence of chemical substance / level in the absence of chemical substance (yeast gene YGL088W, cultured two hours with the chemical substance): 0.7 | The level of expressed mRNA in the presence of chemical substance/The level of expressed mRNA in the absence of chemical substance (yeast gene YGL187C, mitochondria-located protein gene, cultured two hours with substance): 0.7 | The level of expressed mRNA in the presence of chemical substance/The level of expressed mRNA in the absence of chemical substance (yeast gene YGL191W, mitochondria-located protein gene, cultured two hours with substance): 1.1 | level of expressed mRNA in the presence of chemical substance / level in the absence of chemical substance (yeast gene YGR038W, cultured two hours with the chemical substance): 1.2 | The level of expressed mRNA in the presence of chemical substance/The level of expressed mRNA in the absence of chemical substance (yeast gene YGR043C, cultured for two hours with substance): 6.9 | The level of expressed mRNA in the presence of chemical substance/The level of expressed mRNA in the absence of chemical substance (yeast gene YGR101W, cultured two hours with substance): 2.4 | The level of expressed mRNA in the presence of chemical substance/The level of expressed mRNA in the absence of chemical substance (yeast gene YGR110W, cultured two hours with substance): 3.6 | level of expressed mRNA in the presence of chemical substance / level in the absence of chemical substance (yeast gene YGR139W, cultured two hours with the chemical substance): 0.4 | The level of expressed mRNA in the presence of chemical substance/The level of expressed mRNA in the absence of chemical substance (yeast gene YGR146C, cultured two hours with substance): 1.7 | The level of expressed mRNA in the presence of chemical substance/The level of expressed mRNA in the absence of chemical substance (yeast gene YGR154C, cultured two hours with substance): 2.5 | The level of expressed mRNA in the presence of chemical substance/The level of expressed mRNA in the absence of chemical substance (yeast gene YGR161C, cultured two hours with substance): 2.8 | The level of expressed mRNA in the presence of chemical substance/The level of expressed mRNA in the absence of chemical substance (yeast gene YGR231C, DNA repair protein genes, cultured two hours with substance): 3.9 | level of expressed mRNA in the presence of chemical substance / level in the absence of chemical substance (yeast gene YGR243W, cultured two hours with the chemical substance): 1.1 | The level of expressed mRNA in the presence of chemical substance/The level of expressed mRNA in the absence of chemical substance (yeast gene YGR256W, cultured for two hours with substance): 3.9 | The level of expressed mRNA in the presence of chemical substance/The level of expressed mRNA in the absence of chemical substance (yeast gene YGR268C, cultured two hours with substance): 2.8 | level of expressed mRNA in the presence of chemical substance / level in the absence of chemical substance (yeast gene YGR293C, cultured two hours with the chemical substance): 0.7 | level of expressed mRNA in the presence of chemical substance / level in the absence of chemical substance (yeast gene YHL006C, cultured two hours with the chemical substance): 1.1 | level of expressed mRNA in the presence of chemical substance / level in the absence of chemical substance (yeast gene YHR095W, cultured two hours with the chemical substance): 0.7 | level of expressed mRNA in the presence of chemical substance / level in the absence of chemical substance (yeast gene YHR105W, cultured two hours with the chemical substance): 1.4 | level of expressed mRNA in the presence of chemical substance / level in the absence of chemical substance (yeast gene YHR181W, cultured two hours with the chemical substance): 0.7 | The level of expressed mRNA in the presence of chemical substance/The level of expressed mRNA in the absence of chemical substance (yeast gene YHR199C, cultured two hours with substance): 2.1 | The level of expressed mRNA in the presence of chemical substance/The level of expressed mRNA in the absence of chemical substance (yeast gene YIL087C, cultured two hours with substance): 2.4 | The level of expressed mRNA in the presence of chemical substance/The level of expressed mRNA in the absence of chemical substance (yeast gene YIL122W, cultured two hours with the chemical substance): 0.7 | level of expressed mRNA in the presence of chemical substance / level in the absence of chemical substance (yeast gene YIL127C, cultured two hours with the chemical substance): 0.4 | level of expressed mRNA in the presence of chemical substance / level in the absence of chemical substance (yeast gene YJL017W, cultured two hours with the chemical substance): 1.5 | level of expressed mRNA in the presence of chemical substance / level in the absence of chemical substance (yeast gene YJL037W, cultured two hours with the chemical substance): 1.1 | The level of expressed mRNA in the presence of chemical substance/The level of expressed mRNA in the absence of chemical substance (yeast gene YJL057C, cultured two hours with substance): 2.5 | The level of expressed mRNA in the presence of chemical substance/The level of expressed mRNA in the absence of chemical substance (yeast gene YJL082W, cultured two hours with substance): 2.1 | level of expressed mRNA in the presence of chemical substance / level in the absence of chemical substance (yeast gene YJL097W, cultured two hours with the chemical substance): 0.7 | The level of expressed mRNA in the presence of chemical substance/The level of expressed mRNA in the absence of chemical substance (yeast gene YJL144W, cultured two hours with substance): 3.9 | The level of expressed mRNA in the presence of chemical substance/The level of expressed mRNA in the absence of chemical substance (yeast gene YJL151C, cultured two hours with substance): 2.4 | The level of expressed mRNA in the presence of chemical substance/The level of expressed mRNA in the absence of chemical substance (yeast gene YJL161W, cultured two hours with substance): 2.5 | level of expressed mRNA in the presence of chemical substance / level in the absence of chemical substance (yeast gene YJR030C, cultured two hours with the chemical substance): 0.7 | The level of expressed mRNA in the presence of chemical substance/The level of expressed mRNA in the absence of chemical substance (yeast gene YJR046W, DNA repair protein genes, cultured two hours with substance): 3.0 | The level of expressed mRNA in the presence of chemical substance/The level of expressed mRNA in the absence of chemical substance (yeast gene YJR074W, cultured two hours with substance): 2.8 | The level of expressed mRNA in the presence of chemical substance/The level of expressed mRNA in the absence of chemical substance (yeast gene YJR121W, mitochondria-located protein gene, cultured two hours with substance): 1.0 | The level of expressed mRNA in the presence of chemical substance/The level of expressed mRNA in the absence of chemical substance (yeast gene YJR123W): 0.1 | level of expressed mRNA in the presence of chemical substance / level in the absence of chemical substance (yeast gene YKL051W, cultured two hours with the chemical substance): 1.2
